The source of these data is US12617783B2, “Heterocyclic GLP-1R agonists” (BIOMEA FUSION, INC., priority 2024, dated 2026).

The EC50 is the concentration giving half of the maximal effect.

Read-outs that look alike come from different tables or passages of the source. A value given as a limit tells only on which side of the number the result lay.

For the assay, the target named is T1, human GLP-1R (Homo sapiens, UniProt P43220).
T1 construct: host or cells: HEK293
Put plainly: GLP-1R cAMP assay (Example B1a, HTRF, 30 min at room temperature). Format: cell-based. An outline of the steps: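 Competitive HTRF read-out of cAMP after 30 min room-temperature stimulation, BETP absent, of human GLP-1R-HEK293 cells (1,000/well) in HEPES buffer with 500 μM IBMX and 0.1% BSA. Activation normalised to GLP-1(7-37) positive control. EC50 from 4-parameter non-linear regression.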
Background: cAMP levels reflect the balance of adenylyl cyclase and phosphodiesterase activity.

The mark [1] stands for this setting: cAMP accumulation in HEK293 expressing human GLP-1R, no BETP, 30 min room temperature (Method B1a, compounds ID 1-609), Table 1, read-out: EC50.

T1 sequence (P43220 24-463): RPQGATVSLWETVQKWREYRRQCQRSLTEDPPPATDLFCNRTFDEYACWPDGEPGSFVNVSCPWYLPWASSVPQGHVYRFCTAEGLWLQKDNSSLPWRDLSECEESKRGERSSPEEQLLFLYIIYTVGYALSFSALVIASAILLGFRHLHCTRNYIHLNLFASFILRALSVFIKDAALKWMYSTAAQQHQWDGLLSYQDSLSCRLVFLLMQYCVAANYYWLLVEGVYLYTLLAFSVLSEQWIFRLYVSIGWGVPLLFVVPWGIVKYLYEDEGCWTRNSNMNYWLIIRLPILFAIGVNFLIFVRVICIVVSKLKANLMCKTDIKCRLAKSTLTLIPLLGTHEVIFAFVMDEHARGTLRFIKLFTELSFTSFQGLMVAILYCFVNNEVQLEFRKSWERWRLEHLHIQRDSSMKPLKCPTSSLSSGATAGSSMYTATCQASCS

Regarding `COc1cc2c(F)c(-n3ccn(-c4c5c(nn4-c4cc(C)c(F)c(C)c4)C[C@H]4CC[C@@H]5N4C(=O)c4cc5cc([C@H]6CCOC(C)(C)C6)ccc5n4[C@@]4(c5noc(=O)[nH]5)C[C@@H]4C)c3=O)ccn2n1` [Compound 431, 3-((1S,2S)-1-(5-((S)-2,2-dimethyltetrahydro-2H-pyran-4-yl)-2-((4S,7R)-3-(3-(4-fluoro-2-methoxypyrazolo[1,5-a]pyridin-5-yl)-2-oxo-2,3-dihydro-1H-imidazol-1-yl)-2-(4-fluoro-3,5-dimethylphenyl)-2,4,5,6,7,8-hexahydro-4,7-epiminocyclohepta [c]pyrazole-9-carbonyl)-1H-indol-1-yl)-2-methylcyclopropyl)-1,2,4-oxadiazol-5 (4H)-one], the EC50 under setting [1] is 125 nM. On the same count and under the same terms, the same measure for `Cc1cc(-n2nc3c(c2-n2ccn(-c4ccc5c(cnn5C)c4F)c2=O)CN(Cc2cc4cc([C@H]5CCOC(C)(C)C5)ccc4n2[C@@]2(c4noc(=O)[nH]4)C[C@@H]2C)CCC3)cc(C)c1F` [Compound 432, 3-((1S,2S)-1-(5-((S)-2,2-dimethyltetrahydro-2H-pyran-4-yl)-2-((3-(3-(4-fluoro-1-methyl-1H-indazol-5-yl)-2-oxo-2,3-dihydro-1H-imidazol-1-yl)-2-(4-fluoro-3,5-dimethylphenyl)-2,6,7,8-tetrahydropyrazolo[4,3-c]azepin-5 (4H)-yl)methyl)-1H-indol-1-yl)-2-methylcyclopropyl)-1,2,4-oxadiazol-5(4H)-one]: 284 nM. For `Cc1cc(-n2nc3c(c2-n2ccn(-c4ccc5c(cnn5C)c4F)c2=O)[C@@H]2CCC[C@H](C3)N2C(=O)c2cc3cc([C@H]4CCOC(C)(C)C4)ccc3n2[C@@]2(c3noc(=O)[nH]3)C[C@@H]2C)cc(C)c1F` [Compound 433, 3-((1S,2S)-1-(5-((S)-2,2-dimethyltetrahydro-2H-pyran-4-yl)-2-((4S,8R)-3-(3-(4-fluoro-1-methyl-1H-indazol-5-yl)-2-oxo-2,3-dihydro-1H-imidazol-1-yl)-2-(4-fluoro-3,5-dimethylphenyl)-4,5,6,7,8,9-hexahydro-2H-4,8-epiminocycloocta [c]pyrazole-10-carbonyl)-1H-indol-1-yl)-2-methylcyclopropyl)-1,2,4-oxadiazol-5 (4H)-one], the “EC50 Ratio” value (Table 1d, potency ratio of stereoisomer pair (less potent / more potent isomer)) is greater than 333. Further, the EC50 (Table 1d, stereoisomer pairs, read-out: EC50) was found to be 30 nM; the EC50 under setting [1] was found to be 30 nM; the EC50 (text to Table 1d, bridge atoms configured into the plane or away from the reader, read-out: potency (EC50)) is less than 1000 nM. As for `CC[C@H]1C[C@]1(c1noc(=O)[nH]1)n1c(C(=O)N2[C@@H]3CC[C@H]2c2c(nn(-c4cc(C)c(F)c(C)c4)c2-n2ccn(-c4ccc5c(cnn5C)c4F)c2=O)C3)cc2cc([C@H]3CCOC(C)(C)C3)ccc21` [Compound 434, 3-[(1S,2S)-1-[5-[(4S)-2,2-dimethyltetrahydropyran-4-yl]-2-[(1S,8R)-4-(4-fluoro-3,5-dimethyl-phenyl)-3-[3-(4-fluoro-1-methyl-indazol-5-yl)-2-oxo-imidazol-1-yl]-4,5,11-triazatricyclo[6.2.1.02,6]undeca-2,5-diene-11-carbonyl]indol-1-yl]-2-ethyl-cyclopropyl]-4H-1,2,4-oxadiazol-5-one], under setting [1], the EC50 stood at 175 nM. Still for that read-out and setting: the same measure for `CC[C@@H]1C[C@@]1(c1noc(=O)[nH]1)n1c(C(=O)N2[C@@H]3CC[C@H]2c2c(nn(-c4cc(C)c(F)c(C)c4)c2-n2ccn(-c4ccc5c(cnn5C)c4F)c2=O)C3)cc2cc([C@H]3CCOC(C)(C)C3)ccc21` [Compound 435, 3-[(1R,2R)-1-[5-[(4S)-2,2-dimethyltetrahydropyran-4-yl]-2-[(1S,8R)-4-(4-fluoro-3,5-dimethyl-phenyl)-3-[3-(4-fluoro-1-methyl-indazol-5-yl)-2-oxo-imidazol-1-yl]-4,5,11-triazatricyclo[6.2.1.02,6]undeca-2,5-diene-11-carbonyl]indol-1-yl]-2-ethyl-cyclopropyl]-4H-1,2,4-oxadiazol-5-one]: 3870 nM; for `Cc1cc(-n2nc3c(c2-n2ccn(-c4ccc5[nH]ncc5c4F)c2=O)[C@@H]2CC[C@H](C3)N2C(=O)c2cc3cc([C@H]4CCOC5(CC5)C4)ccc3n2[C@@]2(c3noc(=O)[nH]3)C[C@@H]2C)cc(C)c1F` [Compound 436, 3-((1S,2S)-1-(2-((4S,7R)-3-(3-(4-fluoro-1H-indazol-5-yl)-2-oxo-2,3-dihydro-1H-imidazol-1-yl)-2-(4-fluoro-3,5-dimethylphenyl)-2,4,5,6,7,8-hexahydro-4,7-epiminocyclohepta [c]pyrazole-9-carbonyl)-5-((S)-4-oxaspiro[2.5]octan-7-yl)-1H-indol-1-yl)-2-methylcyclopropyl)-1,2,4-oxadiazol-5 (4H)-one]: 70 nM; for `Cc1cc(-n2nc3c(c2-n2ccn(-c4ccc5cnncc5c4F)c2=O)[C@@H]2CC[C@H](C3)N2C(=O)c2cc3cc([C@H]4CCOC5(CC5)C4)ccc3n2[C@@]2(c3noc(=O)[nH]3)C[C@@H]2C)cc(C)c1F` [Compound 437, 3-((1S,2S)-1-(2-((4S,7R)-2-(4-fluoro-3,5-dimethylphenyl)-3-(3-(5-fluorophthalazin-6-yl)-2-oxo-2,3-dihydro-1H-imidazol-1-yl)-2,4,5,6,7,8-hexahydro-4,7-epiminocyclohepta [c]pyrazole-9-carbonyl)-5-((S)-4-oxaspiro[2.5]octan-7-yl)-1H-indol-1-yl)-2-methylcyclopropyl)-1,2,4-oxadiazol-5 (4H)-one]: 55 nM.

On to `Cc1cc(-n2nc3c(c2-n2ccn(-c4ccc5c(cnn5C)c4F)c2=O)[C@@H]2CC[C@H](C3)N2S(=O)(=O)c2cc3cc(C4CCOC(C)(C)C4)ccc3n2[C@@]2(c3noc(=O)[nH]3)C[C@@H]2C)cc(C)c1F` (stereo partly drawn) [Compound 503, 3-((1S,2S)-1-(5-(2,2-dimethyltetrahydro-2H-pyran-4-yl)-2-(((4S,7R)-3-(3-(4-fluoro-1-methyl-1H-indazol-5-yl)-2-oxo-2,3-dihydro-1H-imidazol-1-yl)-2-(4-fluoro-3,5-dimethylphenyl)-2,4,5,6,7,8-hexahydro-4,7-epiminocyclohepta [c]pyrazol-9-yl)sulfonyl)-1H-indol-1-yl)-2-methylcyclopropyl)-1,2,4-oxadiazol-5 (4H)-one], for which the EC50 under setting [1] is 97.8 nM. Still for that read-out and setting: to `Cc1cc(-n2nc3c(c2-n2ccn(-c4ccc5c(cnn5C)c4F)c2=O)[C@@H]2CC[C@H](C3)N2S(=O)(=O)c2cc3cc(C4CCOC(C)(C)C4)ccc3n2[C@]2(c3noc(=O)[nH]3)C[C@@H]2C)cc(C)c1F` (stereo partly drawn) [Compound 504, 3-[(1R,2S)-1-[5-(2,2-dimethyltetrahydropyran-4-yl)-2-[[(1S,8R)-4-(4-fluoro-3,5-dimethyl-phenyl)-3-[3-(4-fluoro-1-methyl-indazol-5-yl)-2-oxo-imidazol-1-yl]-4,5,11-triazatricyclo[6.2.1.02,6]undeca-2,5-dien-11-yl]sulfonyl]indol-1-yl]-2-methyl-cyclopropyl]-4H-1,2,4-oxadiazol-5-one] belongs 1930 nM; to `Cc1cc(-n2nc3c(c2-n2ccn(-c4ccc5[nH]ncc5c4F)c2=O)CN(C(=O)c2cc4cc([C@H]5CCOC(C)(C)C5)ccc4n2[C@@]2(c4noc(=O)[nH]4)C[C@@H]2C)CCC3)cc(C)c1F` [Compound 505, 3-[(1S,2S)-1-[5-[(4S)-2,2-dimethyltetrahydropyran-4-yl]-2-[2-(4-fluoro-3,5-dimethyl-phenyl)-3-[3-(4-fluoro-1H-indazol-5-yl)-2-oxo-imidazol-1-yl]-4,6,7,8-tetrahydropyrazolo[4,3-c]azepine-5-carbonyl]indol-1-yl]-2-methyl-cyclopropyl]-4H-1,2,4-oxadiazol-5-one], 600 nM. Still for that read-out and setting: to `CCP(=O)(CC)c1ccc(-n2ccn(-c3c4c(nn3-c3cc(C)c(F)c(C)c3)CCCN(C(=O)c3cc5cc(C6CCOCC6)ccc5n3[C@@]3(c5noc(=O)[nH]5)C[C@@H]3C)C4)c2=O)cc1NC` [Compound 506, 3-[(1S,2S)-1-[2-[3-[3-[4-diethylphosphoryl-3-(methylamino)phenyl]-2-oxo-imidazol-1-yl]-2-(4-fluoro-3,5-dimethyl-phenyl)-4,6,7,8-tetrahydropyrazolo[4,3-c]azepine-5-carbonyl]-5-tetrahydropyran-4-yl-indol-1-yl]-2-methyl-cyclopropyl]-4H-1,2,4-oxadiazol-5-one] belongs 757 nM; to `Cc1cc(-n2nc3c(c2-n2ccn(-c4ccc5c(cnn5C)c4F)c2=O)C2CCC([C@@H]3F)N2C(=O)c2cc3cc([C@H]4CCOC(C)(C)C4)ccc3n2[C@@]2(c3noc(=O)[nH]3)C[C@@H]2C)cc(C)c1F` (stereo partly drawn) [Compound 507, cis-3-((1S,2S)-1-(5-((S)-2,2-dimethyltetrahydro-2H-pyran-4-yl)-2-(8-fluoro-3-(3-(4-fluoro-1-methyl-1H-indazol-5-yl)-2-oxo-2,3-dihydro-1H-imidazol-1-yl)-2-(4-fluoro-3,5-dimethylphenyl)-2,4,5,6,7,8-hexahydro-4,7-epiminocyclohepta [c]pyrazole-9-carbonyl)-1H-indol-1-yl)-2-methylcyclopropyl)-1,2,4-oxadiazol-5 (4H)-one], 630 nM. Still for that read-out and setting: the same measure for `Cc1cc(-n2nc3c(c2-n2ccn(-c4ccc5c(cnn5C)c4F)c2=O)CN(S(=O)(=O)c2cc4cc(C5CCOC(C)(C)C5)ccc4n2[C@@]2(c4noc(=O)[nH]4)C[C@@H]2C)CCC3)cc(C)c1F` (stereo partly drawn) [Compound 508, 3-[(1S,2S)-1-[5-(2,2-dimethyltetrahydropyran-4-yl)-2-[[2-(4-fluoro-3,5-dimethyl-phenyl)-3-[3-(4-fluoro-1-methyl-indazol-5-yl)-2-oxo-imidazol-1-yl]-4,6,7,8-tetrahydropyrazolo[4,3-c]azepin-5-yl]sulfonyl]indol-1-yl]-2-methyl-cyclopropyl]-4H-1,2,4-oxadiazol-5-one]: no less than 10000 nM.
